# Test results: ChEMBL document CHEMBL4680355, “Staphylococcus aureus resistance to albocycline can be achieved by mutations that alter cellular NAD/PH pools” (Bioorg Med Chem, 2021)
# Legend:
# Bacterial 70S ribosome [1] = test: Binding affinity to Staphylococcus aureus 70S ribosome assessed as dissociation constant by measuring reduction in BODIPY-Erythromycin A binding incubated for 1.5 hr by fluorescence polarization assay; type: subcellular
# Staphylococcus aureus [2] = test: Antibacterial activity against Staphylococcus aureus UAMS-1 AlbR A resistant mutant assessed as growth inhibition incubated at 16 to 24 hrs by CLSI method; type: functional; conditions: time 16-24 hrs
# Staphylococcus aureus [3] = test: Antibacterial activity against Staphylococcus aureus NE939 Tn mutant assessed as growth inhibition incubated at 16 to 24 hrs by CLSI method; type: functional; conditions: time 16-24 hrs
# Staphylococcus aureus [4] = test: Synergistic antibacterial activity against Staphylococcus aureus UAMS-1 AlbR A resistant mutant assessed as fractional inhibitory concentration index in presence of fosfomycin by broth microdilution assay; type: functional
# Staphylococcus aureus [5] = test: Synergistic antibacterial activity against Staphylococcus aureus UAMS-1 assessed as fractional inhibitory concentration index in presence of fosfomycin by broth microdilution assay; type: functional
# Staphylococcus aureus [6] = test: Inhibition of Staphylococcus aureus MurA expressed in Escherichia coli BL21(DE3) assessed as Vmax for DP-G1cNAc to EU- DP-G1cNAc conversion at 50 uM preincubated for 15 mins by HPLC method (reference value: 0.235 +/- 0.049 uM/min)
# Staphylococcus aureus [7] = test: Inhibition of Staphylococcus aureus MurA expressed in Escherichia coli BL21(DE3) assessed as Kcat for DP-G1cNAc to EU- DP-G1cNAc conversion at 100 uM preincubated for 15 mins by HPLC method (reference value: 0.471 +/- 0.994 /min)
# Staphylococcus aureus [8] = test: Antibacterial activity against Staphylococcus aureus UAMS-1 AlbR D resistant mutant assessed as growth inhibition incubated at 16 to 24 hrs by CLSI method; type: functional; conditions: time 16-24 hrs
# Staphylococcus aureus [9] = test: Synergistic antibacterial activity against Staphylococcus aureus UAMS-1 AlbR C resistant mutant assessed as fractional inhibitory concentration index in presence of fosfomycin by broth microdilution assay; type: functional
# Staphylococcus aureus [10] = test: Inhibition of Staphylococcus aureus MurA expressed in Escherichia coli BL21(DE3) assessed as Vmax for DP-G1cNAc to EU- DP-G1cNAc conversion at 150 uM preincubated for 15 mins by HPLC method (reference value: 0.235 +/- 0.049 uM/min)
# Staphylococcus aureus [11] = test: Antibacterial activity against Staphylococcus aureus UAMS-1 assessed as growth inhibition incubated at 16 to 24 hrs by CLSI method; type: functional; conditions: time 16-24 hrs
# Staphylococcus aureus [12] = test: Inhibition of Staphylococcus aureus MurA expressed in Escherichia coli BL21(DE3) assessed as Vmax for DP-G1cNAc to EU- DP-G1cNAc conversion at 100 uM preincubated for 15 mins by HPLC method (reference value: 0.235 +/- 0.049 uM/min)
# Staphylococcus aureus [13] = test: Antibacterial activity against Staphylococcus aureus NE1416 Tn mutant assessed as growth inhibition incubated at 16 to 24 hrs by CLSI method; type: functional; conditions: time 16-24 hrs
# Staphylococcus aureus [14] = test: Synergistic antibacterial activity against Staphylococcus aureus UAMS-1 AlbR D resistant mutant assessed as fractional inhibitory concentration index in presence of fosfomycin by broth microdilution assay; type: functional
# Staphylococcus aureus [15] = test: Antibacterial activity against Staphylococcus aureus UAMS-1 AlbR C resistant mutant assessed as growth inhibition incubated at 16 to 24 hrs by CLSI method; type: functional; conditions: time 16-24 hrs
# [16] = Inhibition of Staphylococcus aureus MurA expressed in Escherichia coli BL21(DE3) assessed as using DP-G1cNAc as substrate preincubated for 15 mins by HPLC method
# Staphylococcus aureus [17] = test: Inhibition of Staphylococcus aureus MurA expressed in Escherichia coli BL21(DE3) assessed as Kcat for DP-G1cNAc to EU- DP-G1cNAc conversion at 150 uM preincubated for 15 mins by HPLC method (reference value: 0.471 +/- 0.994 /min)
# Staphylococcus aureus [18] = test: Inhibition of Staphylococcus aureus MurA expressed in Escherichia coli BL21(DE3) assessed as Kcat for DP-G1cNAc to EU- DP-G1cNAc conversion at 50 uM preincubated for 15 mins by HPLC method (reference value: 0.471 +/- 0.994 /min)
# Staphylococcus aureus [19] = test: Synergistic antibacterial activity against Staphylococcus aureus UAMS-1 AlbR B resistant mutant assessed as fractional inhibitory concentration index in presence of fosfomycin by broth microdilution assay; type: functional
# Staphylococcus aureus [20] = test: Antibacterial activity against Staphylococcus aureus USA300 Tn mutant assessed as growth inhibition incubated at 16 to 24 hrs by CLSI method; type: functional; conditions: time 16-24 hrs
# Staphylococcus aureus [21] = test: Antibacterial activity against Staphylococcus aureus UAMS-1 AlbR B resistant mutant assessed as growth inhibition incubated at 16 to 24 hrs by CLSI method; type: functional; conditions: time 16-24 hrs
# Bacterial 70S ribosome [22] = test: Binding affinity to Staphylococcus aureus 70S ribosome assessed as reduction in BODIPY-Erythromycin A binding incubated for 1.5 hr by fluorescence polarization assay; type: subcellular
Compound,MIC (Staphylococcus aureus [2]),MIC (Staphylococcus aureus [3]),MIC (Staphylococcus aureus [8]),MIC (Staphylococcus aureus [11]),MIC (Staphylococcus aureus [13]),MIC (Staphylococcus aureus [15]),MIC (Staphylococcus aureus [20]),MIC (Staphylococcus aureus [21]),also measured
CO[C@H]1/C=C/[C@@](C)(O)/C=C/C(=O)O[C@H](C)[C@@H](C)CC/C=C/1C,512 µg/mL,1 µg/mL,> 1020 µg/mL,1 µg/mL,> 256 µg/mL,> 1020 µg/mL,1 µg/mL,512 µg/mL,Kd (Bacterial 70S ribosome [1]): 2.4 nM; fractional inhibitory concentration index (FICI) (Staphylococcus aureus [4]): 0.5; fractional inhibitory concentration index (FICI) (Staphylococcus aureus [5]): 1.004; Vmax (Staphylococcus aureus [6]): 0.157 µM/min; kcat (Staphylococcus aureus [7]): 0.0024 s⁻¹; fractional inhibitory concentration index (FICI) (Staphylococcus aureus [9]): 0.25; Vmax (Staphylococcus aureus [10]): 0.0476 µM/min; Vmax (Staphylococcus aureus [12]): 0.0722 µM/min; fractional inhibitory concentration index (FICI) (Staphylococcus aureus [14]): 0.5; Ki [16]: 23600 nM; kcat (Staphylococcus aureus [17]): 0.00159 s⁻¹; kcat (Staphylococcus aureus [18]): 0.00523 s⁻¹; fractional inhibitory concentration index (FICI) (Staphylococcus aureus [19]): 0.25
C[C@@H]1O[C@@H]1P(=O)(O)O [FOSFOMYCIN],16 µg/mL,4 µg/mL,16 µg/mL,16 µg/mL,16 µg/mL,16 µg/mL,32 µg/mL,16 µg/mL,
CC[C@H]1OC(=O)[C@@](C)(F)C(=O)[C@H](C)[C@@H](O[C@@H]2O[C@H](C)C[C@H](N(C)C)[C@H]2O)[C@](C)(OC)C[C@@H](C)C(=O)[C@H](C)[C@H]2N(CCCCn3cc(-c4cccc(N)c4)nn3)C(=O)O[C@]12C [SOLITHROMYCIN],,,,,,,,,Ki (Bacterial 70S ribosome [22]): 60.3 nM
